Data as given in US20240335404A1, “SUBSTITUTED ESTERS CONTAINING POLYOLS AND SACCHARIDES FOR TREATING HEPATOTOXICITY AND FATTY LIVER DISEASES” (SINEW PHARMA INC., priority 2015, published 2024).

Tests used:
[1] = biological target: CYP2E1 (Homo sapiens, UniProt P05181); experiment: CYP2E1 inhibitory activity assay in human liver microsomes (CZX to 6-OH-CZX)
Method: After addition of the test sample, the amount of CYP450 isozyme metabolite standard 6-OH-CZX (6-Hydroxy-Chlorzoxazone) is specific used for calculation of the CYP450 isozyme (CYP2E1) inhibition ratio of the test sample by using the amount of 6-OH-CZX of the control group as the baseline.
All samples were tested in triplicate. To determine the percentage inhibition, each test compound was dissolved in 1, 2, 4 μg/mL to three different concentrations. The CYP2E1 activity levels in the presence of the test compounds were compared with the control incubations. The 500-μL reaction mixture, containing 0.5 mg of microsomal protein, was incubated with 320 μM CZX in the presence of 5 mM MgCl2 and 1 mM NADPH in 50 mM phosphate buffer with pH 7.4 at 37° C. for 30 min. The reaction was terminated by ice-cold acetonitrile, and then 4-hydroxyl tolbutamide was added as an internal standard. The organic phase was evaporated to dryness and reconstituted into the mobile phase (methanol:water=1:1) prior to liquid chromatography-tandem mass spectrometry (LC-MS/MS) analysis. An API 3000 triple-quadrupole mass spectrometer equipped with an ion-spray (ESI) source was used to determine 6-OH-CZX in the human liver microsomes. The ESI interface was used in the positive-ion mode. The 6-OH-CZX was monitored at a transition of m/z 284.5→185.9.
The CYP450 isozyme activity levels in the presence of the test compounds were compared with the control incubations.

[2] = Pro-drug hydrolysis in fresh human whole-blood (in vitro); format: in vitro ADME; settings: 37° C., up to 24 hrs (FIG. 1)
Method: Fresh human whole-blood were used for drug hydrolysis studies. Drug (10 mg, compound F) was dissolved in 1 mL solution (20% methanol). Drug hydrolysis (n=3) was performed in 20 mL of fresh whole-blood aliquots containing 1.0 mg of drug in a 50-mL flask thermostat at 37° C. in a shaking water bath. At time 0, the drug was added, and after various times of incubation, the blood samples were collected at […], 0.75, 1, 2, 4, 6, 12 and 24 hrs. Blood sample were used 1 mL acetonitrile to quench the enzymatic hydrolysis of the drug as samples were obtained. […] The ESI interface was used in the negative-ion mode.
The pro-drug was monitored at a transition of m/z 688.9∂→180.9, Sucralose was monitored at a transition of m/z 395→359; mannitol was monitored at a transition of m/z 452.3→273.3; C6-mannitol was monitored at a transition of m/z 309→101.1. All the compounds were identified by high-resolution mass spectrophotometry and ^13C NMR. The structure of C6-mannitol (formula (2)) is as follows: […]
The hydrolysis of pro-drug in blood was expressed by plotting the percentage of Pro-drug remaining and the percentage of sucralose, mannitol and C6-mannitol increasing versus time after incubation of the pro-drug in blood (FIG. 1).

Sequence of CYP2E1 (P05181 whole entry): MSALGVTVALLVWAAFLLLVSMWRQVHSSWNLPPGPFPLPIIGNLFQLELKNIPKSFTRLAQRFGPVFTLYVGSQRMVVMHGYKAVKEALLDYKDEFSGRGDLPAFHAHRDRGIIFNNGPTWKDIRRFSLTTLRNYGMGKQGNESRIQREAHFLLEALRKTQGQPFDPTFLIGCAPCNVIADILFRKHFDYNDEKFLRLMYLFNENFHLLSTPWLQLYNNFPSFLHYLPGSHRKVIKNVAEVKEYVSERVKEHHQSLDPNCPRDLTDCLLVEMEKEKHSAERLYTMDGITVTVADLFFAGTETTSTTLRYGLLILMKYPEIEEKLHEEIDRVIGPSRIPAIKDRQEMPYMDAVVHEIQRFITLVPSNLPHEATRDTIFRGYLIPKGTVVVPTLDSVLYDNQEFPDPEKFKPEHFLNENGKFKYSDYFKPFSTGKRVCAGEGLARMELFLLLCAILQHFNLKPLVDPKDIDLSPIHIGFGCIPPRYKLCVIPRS

Question: For `O=C(CCCCC(=O)OC[C@@H](O)[C@@H](O)[C@H](O)[C@H](O)CO)OCC1O[C@H](O[C@]2(CCl)OC(CCl)C(O)C2O)C(O)C(O)[C@H]1Cl` (stereo in doubt) [Compound F, ((2R,3R,4R,5R,6R)-6-(((2R,5R)-2,5-bis(chloromethyl)-3,4-dihydroxytetrahydrofuran-2-yl)oxy)-3-chloro-4,5-dihydroxytetrahydro-2H-pyran-2-yl)methyl ((2R,3R,4R)-2,3,4,5,6-pentahydroxyhexyl) adipate], which “P450 2E1 inhibitor activity” value [1] is on record?
Answer: Its value is “effective as P450 2E1 inhibitors”.

Question: What about the “CYP 2E1 inhibition ratio (%)” value ([1]; 1 μg/mL) of the same compound?
Answer: Its value is 17.7 ± 0.7%.

Question: And the “CYP 2E1 inhibition ratio (%)” value ([1]; 2 μg/mL)?
Answer: The value was 33.3 ± 4.1%.

Question: And the “CYP 2E1 inhibition ratio (%)” value ([1]; 4 μg/mL)?
Answer: Its value is 45.7 ± 2.5%.

Question: What about the “percentage of pro-drug remaining and metabolites formed in blood” value [2] of the same compound?
Answer: Its value is “turns into its metabolites including sucralose, mannitol and C6-mannitol”.
